Key:
isolated 20S proteasome = isolated 20S proteasome (Homo sapiens, UniProt P28074); assay: Proteasome activity using isolated proteasome (chymotrypsin-like activity, MCA liberation); assay type: biochemical; set-up: unit of the concentration uncertain; conditions: relative to DMSO control (0 (unit uncertain) = 100%), mean of 3 independent tests
Description: The method used herein to investigate the proteasome stimulating activity of a substance is based on the measurement of the 20S proteasome core activity. To detect this activity, the isolated 20S proteasome reacts with an oligopeptide, which is bound to a fluorochrome. With its chymotrypsin-like proteolytic activity, the proteasome degrades the oligopeptide and liberates the fluorochrome. For this assay 4-methyl-coumaryl-amide (MCA) was used as fluorochrome. Liberation of MCA correlates linearly with the proteasome activity. MCA was detected using an excitation of 360 nm and an emission of 460 nm.
For interpretation, the measured proteasome activities/intensities of fluorescence were compared with pure MCA standards at distinct concentrations.
Two different controls were used for each assay. One “ordinary” control (C) which consisted of isolated proteasome alone, and a DMSO-control (DC). DC was necessary because all substances were diluted in DMSO. Proteasome activity was calculated relative to DMSO control (0 mM).

[1] = system: proteasome in HaCaT cell lysate; assay: Proteasome activity using cell lysates of HaCaT cells (MCA liberation); assay type: biochemical, human; set-up: unit of the concentration uncertain; conditions: HaCaT cellular extracts, relative to DMSO control (0 (unit uncertain) = 100%), mean of 3 independent tests
Procedure: To determine proteasome activity in cell lysate, human keratinocyte cell lines (HaCaT cells) were seeded out in Petri-dishes (area: 22.1 cm^2) and harvested when they reached confluence. Isolation of the pure cell lysate included cell washing, incubation and homogenization in lysis buffer (250 mM sucrose, 25 mM HEPES (4-(2-hydroxyethyl)-1-piperazineethanesulfonic acid), 10 mM MgCl2*6H2O, 1.3 mM EDTA) and final cell lysis with liquid nitrogen. Determination of proteasome activity is based on the liberation of MCA and the corresponding fluorescence like described above in example 3.1. Proteasome activity was calculated relative to DMSO control (0 mM).

yeast = conditions: cited from earlier work
fish = conditions: cited from earlier work

Relative proteasome activity (isolated 20S proteasome; 5 (unit uncertain)) | Relative proteasome activity (isolated 20S proteasome; 10 (unit uncertain)) | Relative proteasome activity (isolated 20S proteasome; 20 (unit uncertain)) | SMILES | Relative proteasome activity ([1]; 5 (unit uncertain)) | Relative proteasome activity ([1]; 10 (unit uncertain)) | Relative proteasome activity ([1]; 20 (unit uncertain)) | Extension of lifespan (yeast) | Extension of lifespan (fish)
125% | 210% | 250% | CC(C)NC(=O)O[C@@H]1C[C@H](C)CC[C@H]1C(C)C [BIO1272, Isopropyl-carbamic acid (1R,2S,5R)-2-isopropyl-5-methylcyclohexyl ester] | 105% | 120% | 140% |  | 
 |  |  | Oc1ccc(C=Cc2cc(O)cc(O)c2)cc1 [Resveratrol] |  |  |  | 70% | 60%

From patent US20110294876A1, “CYCLOHEXYL CARBAMATE COMPOUNDS AS ANTI-AGEING ACTIVES” (SYMRISE AG, priority 2010, published 2011)
